Measured values published in patent publication US7348305B2, “Inhibitor of cardiac tachyarrhythmias” (Department of Veterans Affairs, Rehabilitation, priority 2003, dated 2008).
Entries after “also recorded” stand apart in the source; their conditions may differ.

Tested on: ventricular tachyarrhythmias following LAD coronary artery ligation
Test: Model 1: two-stage LAD coronary artery ligation, Holter EKG monitoring 2-24 hr (ventricular triplets, sustained VT/VF, death)
Type: in vivo, dog
Description: The two-stage ligation procedure results in a very low incidence of ventricular fibrillation (<5-10%) during the initial 6 hours following coronary artery occlusion (Harris et al., 1951). Almost all ventricular fibrillation occurs during the initial 30 minutes with a high proportion of successful defibrillation. Ambulatory EKG monitoring is performed over the 2-24 hr period following coronary artery ligation. During the 6-24 hr period, a 25-40% incidence of rapid monomorphic ventricular tachycardia (385±15/min) leading to ventricular fibrillation is observed at 13.3±0.8 hours post-LAD ligation (FIG. 1), with a mean duration of monomorphic ventricular tachycardia preceding ventricular fibrillation of 66±7 sec. When provocative ventricular pacing is performed at 24 hours, however, the reentrant substrate supporting sustained ventricular tachycardia is present in more than 80% of the surviving dogs with no difference in rate between spontaneous and pacing-induced sustained monomorphic ventricular tachycardias (FIG. 3).
In the 24-hr Infarct (Model 1) Studies, each control and etanercept pretreated animal was monitored for ventricular arrhythmias using a Holter 2-lead recording for the duration of time following LAD ligation. […] In the saline control group, 4 animals died at 11-24 hours post ligation. […]
Model 1: Electrophysiologic correlates of myocardial infarction over a 24-hr period. Eighteen 15-22 kg male mongrel dogs were anesthetized with IV sodium pentobarbital (30 mg/kg). A cuffed endotracheal tube was inserted and the animals were ventilated with room air using a volume-cycled respirator. […] The dogs were extubated and allowed to awaken in a temperature-controlled, humidified small animal post-operative recovery unit. They were given nalbuphine 0.2 mg/kg for post-operative analgesia. During the 2-24 hr period following LAD ligation, Holter monitoring was performed and the two-lead EKG was recorded on magnetic tape. Dogs were re-anesthetized with sodium pentobarbital at 24-hr. The thoracotomy was reopened and the heart was removed and perfused with ice-cold Tyrode's buffer via the left main coronary artery. The outer 0.5-1.5 mm EBZ tissue overlying the infarct was shaved and a longitudinal sample of tissue from the LAD region was stained with triphenyltetrazolium chloride (0.1%) to determine viability of the EBZ. Triphenyltetrazolium (TTZ) forms a brick-red precipitate in the presence of active intracellular dehydrogenases, delineating vital tissue. Non-viable tissues are not stained and remain a pale color. […] Tissue samples from the RS, the EBZ and the infarct tissue were dissected rapidly on an ice-cold surface, placed in freezer vials, and frozen in liquid nitrogen. These samples were then stored at −70° C. for later assay.
EKG Analysis: Full disclosure EKG records were obtained at 10 mm/sec for the entire 2-24 hour post-occlusion period. All measurements and calculations were made by direct visual observation and manual counting.
Anti-TNFα Treatment: A dosage of 2 mg/kg hTNFR:Fc (supplied as etanercept, Amgen, Inc, Thousand Oaks, Calif.) or saline were injected IV into a forepaw vein at 24-hr and again 1-hr prior to LAD ligation. […] This dosage was used after consultation with the pharmaceutical corporate pharmacology section and based on unpublished internal data that this dosage would provide maximal sequestration of tissue and circulating TNFα.

etanercept
fastest ventricular triplet rate observed per hour after LAD ligation (FIG. 18, FIG. 32) (4 to 24 hr after LAD ligation): significant reduction
mortality (dogs died of group) (24 hr after LAD ligation, etanercept 2 mg/kg at -24 and -1 hr, bortezomib 0.0875 mg/kg at -1 and +6 hr, anakinra 10 mg/kg at -1 and +12 hr, control 4 of 10, preliminary): 0 of 8
frequency of very rapid (≧360 bpm) ventricular triplets (etanercept 2 mg/kg IV 24 and 1 hr before LAD ligation, 4-24 hr (2 to 24 hr) after ligation, n=8, saline 21±6/hr): 6 ± 1 h⁻¹
average frequency of total rapid (≧300 bpm) ventricular triplets (etanercept 2 mg/kg IV 24 and 1 hr before LAD ligation, n=8, saline 152±32/hr): 45 ± 8 h⁻¹
very rapid (≧360 bpm) ventricular triplets versus control (FIG. 31B) (etanercept 2 mg/kg, bortezomib 0.0875 mg/kg): significant descrease; also recorded: significant decrease
rapid (>300 bpm) ventricular triplets per hour versus control (FIG. 31A) (etanercept 2 mg/kg, bortezomib 0.0875 mg/kg, anakinra 10 mg/kg): significant descrease
idioventricular heart rate on EKG (etanercept-treated dogs versus saline, after LAD ligation (FIG. 16B)): slower idioventricular heart rate
development of sustained ventricular tachycardia or fibrillation (etanercept-treated dogs, four saline-treated dogs developed it at 11-24 hours post ligation): no etanercept-treated dogs developed sustained ventricular tachycardia or fibrillation
